This note sets out measurements from ChEMBL document CHEMBL1806393, “Cytotoxic oxasqualenoids from the red alga Laurencia viridis” (Eur J Med Chem, 2011).

pIC50: −log10 of the molar value. Activity calls are given as the source filed them. The rule behind the calls is not given here.

The first data set has as its system Jurkat. In words: Induction of apoptosis in human Jurkat cells assessed as DNA breakdown in sub-G1 phase at 20 uM after 24 to 72 hrs using propidium iodide staining by flow cytometry. In kind it is functional, cell-based.
Conditions: not given
A general note: Flow cytometry measures light scatter and fluorescence of single cells or particles in a stream.
For `C=C(CC[C@H](OS(=O)(=O)O)[C@@]1(C)CC[C@H](C(C)(C)O)O1)[C@H]1CC[C@H]2O[C@@H]([C@]3(C)CC[C@@H](Br)C(C)(C)O3)CC[C@]2(C)O1`, the outcome was Active.

Consider `C=C(CC[C@H](O)[C@@]1(C)CC[C@H](C(C)(C)O)O1)[C@H]1CC[C@H]2O[C@@H]([C@]3(C)CC[C@@H](Br)C(C)(C)O3)CC[C@]2(C)O1` [DEHYDROTHYRSIFEROL], for which the result was Active.

Tested on in the next data set: not listed separately
As to the kind of experiment: Solubility of the compound in water. In kind it is physicochemical. Conditions: buffer.
On to `CC(C)(O)[C@H]1CC[C@](C)([C@@H](O)CCC(O)(CO)[C@H]2CC[C@H]3O[C@@H]([C@]4(C)CC[C@@H](Br)C(C)(C)O4)CC[C@]3(C)O2)O1` (stereo partly drawn), for which the solubility entry is “Insoluble”.

For `CC(C)(O)[C@H]1CC[C@](C)([C@@H](O)CC[C@@](O)(CO)C(=O)[C@H](O)C[C@H]2O[C@@H]([C@]3(C)CC[C@@H](Br)C(C)(C)O3)CC[C@]2(C)O)O1`, the solubility entry was “Insoluble”.

`C=C(CC[C@H](OS(=O)(=O)O)[C@@]1(C)CC[C@H](C(C)(C)O)O1)[C@H]1CC[C@H]2O[C@@H]([C@]3(C)CC[C@@H](Br)C(C)(C)O3)CC[C@]2(C)O1`: the solubility result is “Insoluble”.

Take `C=C(CC[C@H](O)[C@@]1(C)CC[C@H](C(C)(C)O)O1)[C@H]1CC[C@H]2O[C@@H]([C@]3(C)CC[C@@H](Br)C(C)(C)O3)CC[C@]2(C)O1` [DEHYDROTHYRSIFEROL]: the solubility entry was “Insoluble”.

For a further data set, the system named is Jurkat. In words: Cytotoxicity against human Jurkat cells assessed as inhibition of cell proliferation after 72 hrs by XTT assay. Type of data set: functional, cell-based.
Conditions: not given
(Tetrazolium assays rely on reduction of a dye to a coloured formazan, in cell work by metabolically active cells.)
As for `CC(C)(O)[C@H]1CC[C@](C)([C@@H](O)CCC(O)(CO)[C@H]2CC[C@H]3O[C@@H]([C@]4(C)CC[C@@H](Br)C(C)(C)O4)CC[C@]3(C)O2)O1` (stereo partly drawn), the negative logarithm of the IC50 (pIC50) (in general, −log10 of the IC50, conventionally taken in molar units) is 5.34.

For the compound `CC(C)(O)[C@H]1CC[C@](C)([C@@H](O)CC[C@@](O)(CO)C(=O)[C@H](O)C[C@H]2O[C@@H]([C@]3(C)CC[C@@H](Br)C(C)(C)O3)CC[C@]2(C)O)O1`, the pIC50 was 5.14.

As to `C=C(CC[C@H](OS(=O)(=O)O)[C@@]1(C)CC[C@H](C(C)(C)O)O1)[C@H]1CC[C@H]2O[C@@H]([C@]3(C)CC[C@@H](Br)C(C)(C)O3)CC[C@]2(C)O1`, the pIC50 is 4.92.

As to `C=C(CC[C@H](O)[C@@]1(C)CC[C@H](C(C)(C)O)O1)[C@H]1CC[C@H]2O[C@@H]([C@]3(C)CC[C@@H](Br)C(C)(C)O3)CC[C@]2(C)O1` [DEHYDROTHYRSIFEROL], the pIC50 is 4.87.

Tested on in the next data set: not listed separately
As to the kind of experiment: Inhibition of […] using p-nitrophenyl phosphate as substrate at <100 uM by UV/visible absorption spectroscopic analysis.
Conditions: not given
`CC(C)(O)[C@H]1CC[C@](C)([C@@H](O)CCC(O)(CO)[C@H]2CC[C@H]3O[C@@H]([C@]4(C)CC[C@@H](Br)C(C)(C)O4)CC[C@]3(C)O2)O1` (stereo partly drawn): the inhibition result is “inactive”.

Regarding `CC(C)(O)[C@H]1CC[C@](C)([C@@H](O)CC[C@@](O)(CO)C(=O)[C@H](O)C[C@H]2O[C@@H]([C@]3(C)CC[C@@H](Br)C(C)(C)O3)CC[C@]2(C)O)O1`, the inhibition result was “inactive”.

As for `C=C(CC[C@H](OS(=O)(=O)O)[C@@]1(C)CC[C@H](C(C)(C)O)O1)[C@H]1CC[C@H]2O[C@@H]([C@]3(C)CC[C@@H](Br)C(C)(C)O3)CC[C@]2(C)O1`, the inhibition result was “inactive”.

Consider `C=C(CC[C@H](O)[C@@]1(C)CC[C@H](C(C)(C)O)O1)[C@H]1CC[C@H]2O[C@@H]([C@]3(C)CC[C@@H](Br)C(C)(C)O3)CC[C@]2(C)O1` [DEHYDROTHYRSIFEROL], for which the inhibition result was “inactive”.

Another data set relates to Jurkat. As to the kind of experiment: Cell cycle arrest in human Jurkat cells assessed as increase in apoptotic cells at sub-G1 phase at 20 uM after 72 hrs using propidium iodide staining by flow cytometry. In kind it is functional, cell-based.
Conditions: not given
For the compound `C=C(CC[C@H](OS(=O)(=O)O)[C@@]1(C)CC[C@H](C(C)(C)O)O1)[C@H]1CC[C@H]2O[C@@H]([C@]3(C)CC[C@@H](Br)C(C)(C)O3)CC[C@]2(C)O1`, the result was Active.

Consider `C=C(CC[C@H](O)[C@@]1(C)CC[C@H](C(C)(C)O)O1)[C@H]1CC[C@H]2O[C@@H]([C@]3(C)CC[C@@H](Br)C(C)(C)O3)CC[C@]2(C)O1` [DEHYDROTHYRSIFEROL], for which the outcome was Active.

The subject of the next data set is HeLa. As to the kind of experiment: Cytotoxicity against human HeLa cells assessed as inhibition of cell proliferation after 72 hrs by XTT assay. Type of data set: functional, cell-based.
Conditions: not given
As for `CC(C)(O)[C@H]1CC[C@](C)([C@@H](O)CCC(O)(CO)[C@H]2CC[C@H]3O[C@@H]([C@]4(C)CC[C@@H](Br)C(C)(C)O4)CC[C@]3(C)O2)O1` (stereo partly drawn), the pIC50 was 4.62.

As for `CC(C)(O)[C@H]1CC[C@](C)([C@@H](O)CC[C@@](O)(CO)C(=O)[C@H](O)C[C@H]2O[C@@H]([C@]3(C)CC[C@@H](Br)C(C)(C)O3)CC[C@]2(C)O)O1`, the pIC50 was 4.59.

In the case of `C=C(CC[C@H](OS(=O)(=O)O)[C@@]1(C)CC[C@H](C(C)(C)O)O1)[C@H]1CC[C@H]2O[C@@H]([C@]3(C)CC[C@@H](Br)C(C)(C)O3)CC[C@]2(C)O1`, the pIC50 was 4.48.

As for `C=C(CC[C@H](O)[C@@]1(C)CC[C@H](C(C)(C)O)O1)[C@H]1CC[C@H]2O[C@@H]([C@]3(C)CC[C@@H](Br)C(C)(C)O3)CC[C@]2(C)O1` [DEHYDROTHYRSIFEROL], the pIC50 is 4.46.

Tested on in a further data set: not listed separately
In words: Cytotoxicity against human MM144 cells assessed as inhibition of cell proliferation after 72 hrs by XTT assay. Type of data set: functional, cell-based.
Conditions: not given
As to `CC(C)(O)[C@H]1CC[C@](C)([C@@H](O)CCC(O)(CO)[C@H]2CC[C@H]3O[C@@H]([C@]4(C)CC[C@@H](Br)C(C)(C)O4)CC[C@]3(C)O2)O1` (stereo partly drawn), the pIC50 is 4.68.

For `CC(C)(O)[C@H]1CC[C@](C)([C@@H](O)CC[C@@](O)(CO)C(=O)[C@H](O)C[C@H]2O[C@@H]([C@]3(C)CC[C@@H](Br)C(C)(C)O3)CC[C@]2(C)O)O1`, the negative-log IC50 (pIC50) is 4.81.

For `C=C(CC[C@H](OS(=O)(=O)O)[C@@]1(C)CC[C@H](C(C)(C)O)O1)[C@H]1CC[C@H]2O[C@@H]([C@]3(C)CC[C@@H](Br)C(C)(C)O3)CC[C@]2(C)O1`, the pIC50 is 4.74.

In the case of `C=C(CC[C@H](O)[C@@]1(C)CC[C@H](C(C)(C)O)O1)[C@H]1CC[C@H]2O[C@@H]([C@]3(C)CC[C@@H](Br)C(C)(C)O3)CC[C@]2(C)O1` [DEHYDROTHYRSIFEROL], the pIC50 is 4.67.

Tested on in a further data set: not listed separately
In words: Cytotoxicity against human CADO-ES1 cells assessed as inhibition of cell proliferation after 72 hrs by XTT assay. In kind it is functional, cell-based. The conditions noted are these: CADO-ES1, 72 h.
For the compound `CC(C)(O)[C@H]1CC[C@](C)([C@@H](O)CCC(O)(CO)[C@H]2CC[C@H]3O[C@@H]([C@]4(C)CC[C@@H](Br)C(C)(C)O4)CC[C@]3(C)O2)O1` (stereo partly drawn), the pIC50 was 4.74.

Turning to `CC(C)(O)[C@H]1CC[C@](C)([C@@H](O)CC[C@@](O)(CO)C(=O)[C@H](O)C[C@H]2O[C@@H]([C@]3(C)CC[C@@H](Br)C(C)(C)O3)CC[C@]2(C)O)O1`, the pIC50 is 5.51.

Regarding `C=C(CC[C@H](OS(=O)(=O)O)[C@@]1(C)CC[C@H](C(C)(C)O)O1)[C@H]1CC[C@H]2O[C@@H]([C@]3(C)CC[C@@H](Br)C(C)(C)O3)CC[C@]2(C)O1`, the pIC50 is 4.57.

For `C=C(CC[C@H](O)[C@@]1(C)CC[C@H](C(C)(C)O)O1)[C@H]1CC[C@H]2O[C@@H]([C@]3(C)CC[C@@H](Br)C(C)(C)O3)CC[C@]2(C)O1` [DEHYDROTHYRSIFEROL], the pIC50 was 4.92.
